In PubChem BioAssay AID248 (DTP/NCI, 2004):
Where “and” joins values, the source holds several entries; their conditions need not be identical. Identical values can stand only once. Toxic doses and inconclusive results are not listed. Cut-off read from the data, not from the text of the source: active = T/C of 150% or more; inactive = T/C below 125%. Peptide text beside a SMILES is read from it. * marks the point of attachment. Trt = c1ccc(C(c2ccccc2)(c2ccccc2)*)cc1; Cbz = O=C(OCc1ccccc1)*; NHNH2 = NN*

System: L1210 leukemia ip in BDF1 mice, survival T/C
Assay: NCI In Vivo Anticancer Drug Screen. Data for tumor model L1210 Leukemia (intraperitoneal) in B6D2F1 (BDF1) mice
Details: endpoint: mean survival time, higher = longer survival
Summary of the method: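 Tumor cells were implanted, animals were treated, and survival was followed. The result divides the treated measurement by the vehicle-control measurement.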

[1] = dose: 100.0 mg/kg/injection, schedule: Q01DX001 (ip), vehicle: saline
[2] = dose: 200.0 mg/kg/injection, schedule: Q01DX001 (ip), vehicle: saline
[3] = dose: 400.0 mg/kg/injection, schedule: Q01DX001 (ip), vehicle: saline
[4] = dose: 100.0 mg/kg/injection, schedule: Q01DX009 (ip), vehicle: Klucel (hydroxypropylcellulose) (HPC)
[5] = dose: 100.0 mg/kg/injection, schedule: Q04DX003 (ip), vehicle: Klucel (hydroxypropylcellulose) (HPC)
[6] = dose: 200.0 mg/kg/injection, schedule: Q01DX009 (ip), vehicle: Klucel (hydroxypropylcellulose) (HPC)
[7] = dose: 200.0 mg/kg/injection, schedule: Q04DX003 (ip), vehicle: Klucel (hydroxypropylcellulose) (HPC)
[8] = dose: 400.0 mg/kg/injection, schedule: Q01DX009 (ip), vehicle: Klucel (hydroxypropylcellulose) (HPC)
[9] = dose: 400.0 mg/kg/injection, schedule: Q04DX003 (ip), vehicle: Klucel (hydroxypropylcellulose) (HPC)
[10] = dose: 100.0 mg/kg/injection, schedule: Q04DX002 (ip), vehicle: saline
[11] = dose: 200.0 mg/kg/injection, schedule: Q04DX002 (ip), vehicle: saline
[12] = dose: 75.0 mg/kg/injection, schedule: Q01DX001 (ip), vehicle: saline
[13] = dose: 150.0 mg/kg/injection, schedule: Q01DX001 (ip), vehicle: saline
[14] = dose: 200.0 mg/kg/injection, schedule: Q01DX009 (ip), vehicle: water

Measured: T/C

CCOC(=O)/C=C(/Nc1ccc(C(=O)c2ccccc2)cc1)C(=O)OCC
inactive: dose: 100.0 mg/kg/injection, schedule: Q01DX001 (ip), vehicle: acetone 87 % of control | dose: 100.0 mg/kg/injection, schedule: Q04DX003 (ip), vehicle: acetone 95 % of control | dose: 200.0 mg/kg/injection, schedule: Q01DX001 (ip), vehicle: acetone 92 % of control | dose: 200.0 mg/kg/injection, schedule: Q04DX003 (ip), vehicle: acetone 93 % of control | dose: 400.0 mg/kg/injection, schedule: Q01DX001 (ip), vehicle: acetone 90 % of control | dose: 400.0 mg/kg/injection, schedule: Q04DX003 (ip), vehicle: acetone 98 % of control

CCOC(=O)C(C(C)=O)C(c1ccc(O)cc1)C(C(C)=O)C(=O)OCC (stereo not drawn)
inactive: [1] 93 % of control | [2] 86 % of control | [3] 87 % of control

O=C(N/N=C/c1cc(Cl)ccc1O)c1cccc2ccccc12
inactive: [1] 94 % of control | [2] 92 % of control | [3] 86 % of control

O=[N+]([O-])c1cc2c3ccccc3ccc2c2ccccc12
inactive: [4] 96 % of control | [5] 95 % of control | [6] 94 % of control | [7] 97 % of control | [8] 100 % of control | [9] 94 % of control

O=c1[nH]c(=O)c(C2OC(CO)C(O)C2O)co1 (stereo not drawn)
inactive: dose: 6.25 mg/kg/injection, schedule: Q04DX003 (ip), vehicle: saline with Tween-80 123 % of control | dose: 12.5 mg/kg/injection, schedule: Q04DX003 (ip), vehicle: saline with Tween-80 106 % of control

Cc1ccc(S(=O)(=O)NC(=O)NCc2ccco2)cc1
inactive: [5] 94 % of control | [7] 86 % of control | [9] 89 % of control

COCCOCCOc1ccc(Cl)cc1
inactive: [10] 92 % of control | [11] 107 % of control | dose: 400.0 mg/kg/injection, schedule: Q04DX002 (ip), vehicle: saline 88 % of control

CNC(=O)NC(C)=C(C#N)C#N
inactive: [12] 94 % of control | [13] 111 % of control

CC1OC(O[C@H]2C[C@](O)(C(C)O)Cc3c(O)c4c(c(O)c32)C(=O)c2c(O)cccc2C4=O)CC(NC=O)C1O (stereo partly drawn)
inactive: dose: 0.05 mg/kg/injection, schedule: Q01DX009 (ip), vehicle: saline 116 % of control | dose: 0.1 mg/kg/injection, schedule: Q01DX001 (ip), vehicle: saline 105 % of control | dose: 0.1 mg/kg/injection, schedule: Q03DX003 (ip), vehicle: saline 112 % of control | dose: 0.2 mg/kg/injection, schedule: Q01DX001 (ip), vehicle: saline 116 % of control | dose: 0.2 mg/kg/injection, schedule: Q03DX003 (ip), vehicle: saline 119 % of control | dose: 0.8 mg/kg/injection, schedule: Q01DX009 (ip), vehicle: saline 119 % of control

CCN(CCC#N)C(=S)Nc1cccc2ccccc12
inactive: [4] 102 % of control | [6] 101 % of control | [8] 104 % of control

CCCCC(=O)N1CCC(C)CC1
inactive: [10] 98 % of control | [11] 91 % of control

Nc1nc(NCCCc2ccccc2)c2[nH]cnc2n1
inactive: dose: 12.5 mg/kg/injection, schedule: Q04DX002 (ip), vehicle: Klucel (hydroxypropylcellulose) (HPC) 98 % of control | dose: 25.0 mg/kg/injection, schedule: Q04DX002 (ip), vehicle: Klucel (hydroxypropylcellulose) (HPC) 95 % of control | dose: 50.0 mg/kg/injection, schedule: Q04DX002 (ip), vehicle: Klucel (hydroxypropylcellulose) (HPC) 102 % of control

CC(C)C1CCC(C)(Cl)C2CCC(C)(Cl)CC12 (stereo not drawn)
inactive: dose: 100.0 mg/kg/injection, schedule: Q01DX009 (ip), vehicle: saline 96 % of control | dose: 200.0 mg/kg/injection, schedule: Q01DX009 (ip), vehicle: saline 91 % of control | dose: 400.0 mg/kg/injection, schedule: Q01DX009 (ip), vehicle: saline 89 % of control

O=C(Nc1ccc(F)cc1)c1ccccc1Cl
inactive: dose: 100.0 mg/kg/injection, schedule: Q01DX009 (ip), vehicle: acetone 98 % of control | dose: 200.0 mg/kg/injection, schedule: Q01DX009 (ip), vehicle: acetone 102 % of control | dose: 400.0 mg/kg/injection, schedule: Q01DX009 (ip), vehicle: acetone 102 % of control

O=C(O)c1ccc(Nc2ccccc2)cc1
inactive: dose: 100.0 mg/kg/injection, schedule: Q04DX003 (ip), vehicle: saline with Tween-80 103 % of control | dose: 200.0 mg/kg/injection, schedule: Q04DX003 (ip), vehicle: saline with Tween-80 90 % of control | dose: 400.0 mg/kg/injection, schedule: Q04DX003 (ip), vehicle: saline with Tween-80 90 % of control

COC(=O)c1ccc(=O)n(C/C=C(\C)CCC(=O)O)c1
inactive: dose: 100.0 mg/kg/injection, schedule: Q01DX009 (ip), vehicle: water 96 % of control | dose: 100.0 mg/kg/injection, schedule: Q04DX003 (ip), vehicle: other 93 % of control | [14] 102 % of control | dose: 200.0 mg/kg/injection, schedule: Q04DX003 (ip), vehicle: other 93 % of control | dose: 400.0 mg/kg/injection, schedule: Q01DX009 (ip), vehicle: water 98 % of control | dose: 400.0 mg/kg/injection, schedule: Q04DX003 (ip), vehicle: other 91 % of control

OC(CCl)CN1CC[N+]2(CC1)CC[N+]1(CCN(CC(O)CCl)CC1)CC2 (stereo not drawn)
inactive: dose: 37.5 mg/kg/injection, schedule: Q01DX009 (ip), vehicle: water 100 % of control | dose: 59.0 mg/kg/injection, schedule: Q01DX009 (ip), vehicle: water 105 % of control | dose: 75.0 mg/kg/injection, schedule: Q01DX009 (ip), vehicle: water 101 % of control | dose: 88.0 mg/kg/injection, schedule: Q01DX009 (ip), vehicle: water 104 % of control | dose: 132.0 mg/kg/injection, schedule: Q01DX009 (ip), vehicle: water 107 % of control | dose: 150.0 mg/kg/injection, schedule: Q01DX009 (ip), vehicle: water 114 % of control | [14] 102 % of control | dose: 300.0 mg/kg/injection, schedule: Q01DX009 (ip), vehicle: water 93 % of control and 95 % of control

CCC1CN2CCc3cc(OC)c(OC)cc3C2CC1CC1c2cc(OC)c(OC)cc2CCN1C(=O)CNC(=O)OC(C)(C)C (stereo not drawn)
inactive: [1] 97 % of control | [2] 101 % of control | [3] 109 % of control

O=C(O)c1cc2ccccc2cc1O
inactive: dose: 100.0 mg/kg/injection, schedule: Q04DX002 (ip), vehicle: gum acacia 102 % of control | dose: 200.0 mg/kg/injection, schedule: Q04DX002 (ip), vehicle: gum acacia 94 % of control

CC(C)CCC(O)c1c[nH]c(=O)[nH]c1=O (stereo not drawn)
inactive: [5] 105 % of control | [7] 105 % of control | [9] 94 % of control

O=C1C(Cl)=CC(Cl)=C/C1=N/Cl
inactive: dose: 25.0 mg/kg/injection, schedule: Q01DX001 (ip), vehicle: Klucel (hydroxypropylcellulose) (HPC) 110 % of control | dose: 50.0 mg/kg/injection, schedule: Q01DX001 (ip), vehicle: Klucel (hydroxypropylcellulose) (HPC) 107 % of control | dose: 100.0 mg/kg/injection, schedule: Q01DX001 (ip), vehicle: Klucel (hydroxypropylcellulose) (HPC) 95 % of control and 100 % of control

c1cnon1
inactive: [1] 102 % of control | [2] 102 % of control | [3] 95 % of control

Cc1ccc(S(=O)C(c2ccccc2)C(c2ccccc2)C(C)O)cc1 (stereo not drawn)
inactive: dose: 100.0 mg/kg/injection, schedule: Q01DX009 (ip), vehicle: saline with Tween-80 89 % of control | dose: 200.0 mg/kg/injection, schedule: Q01DX009 (ip), vehicle: saline with Tween-80 89 % of control | dose: 400.0 mg/kg/injection, schedule: Q01DX009 (ip), vehicle: saline with Tween-80 91 % of control

NNC(=O)C(Cc1ccc(O)cc1)NC(=O)C(CO)NC(=O)C(CSC(c1ccccc1)(c1ccccc1)c1ccccc1)NC(=O)OCc1ccccc1 (stereo not drawn) (Cbz-Cys(Trt)-Ser-Tyr-NHNH2; configuration not given here)
inactive: [12] 96 % of control | [13] 96 % of control | dose: 300.0 mg/kg/injection, schedule: Q01DX001 (ip), vehicle: saline 90 % of control

CCOC(=O)NCC(CCCCN(C)C)(c1cccc2ccccc12)C(C)CC (stereo not drawn)
inactive: dose: 12.5 mg/kg/injection, schedule: Q01DX009 (ip), vehicle: saline with Tween-80 96 % of control | dose: 25.0 mg/kg/injection, schedule: Q01DX009 (ip), vehicle: saline with Tween-80 97 % of control | dose: 50.0 mg/kg/injection, schedule: Q01DX009 (ip), vehicle: saline with Tween-80 100 % of control
